Experimental findings from PubChem BioAssay AID248 (DTP/NCI, 2004) are described below.

The test system of this test is L1210 leukemia ip in BDF1 mice, survival T/C. As to the kind of experiment: NCI In Vivo Anticancer Drug Screen. Data for tumor model L1210 Leukemia (intraperitoneal) in B6D2F1 (BDF1) mice. Particulars: endpoint: mean survival time, higher = longer survival. In a few lines: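 In this screen, tumor-bearing mice given compound are compared to those given vehicle, and their survival values are reported as a treated-to-control quotient.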

Where [1] appears, read: dose: 50.0 mg/kg/injection, schedule: Q01DX009 (ip), vehicle: saline with Tween-80.
Where [2] appears, read: dose: 100.0 mg/kg/injection, schedule: Q04DX003 (ip), vehicle: saline with Tween-80.
The mark [3] stands for this setting: dose: 200.0 mg/kg/injection, schedule: Q04DX003 (ip), vehicle: saline with Tween-80.
Where [4] appears, read: dose: 400.0 mg/kg/injection, schedule: Q04DX003 (ip), vehicle: saline with Tween-80.
[5] abbreviates: dose: 100.0 mg/kg/injection, schedule: Q04DX002 (ip), vehicle: Klucel (hydroxypropylcellulose) (HPC).
The mark [6] stands for this setting: dose: 200.0 mg/kg/injection, schedule: Q04DX002 (ip), vehicle: Klucel (hydroxypropylcellulose) (HPC).
Where [7] appears, read: dose: 400.0 mg/kg/injection, schedule: Q04DX002 (ip), vehicle: Klucel (hydroxypropylcellulose) (HPC).
Setting [8] is: dose: 100.0 mg/kg/injection, schedule: Q01DX009 (ip), vehicle: Klucel (hydroxypropylcellulose) (HPC).
Setting [9] is: dose: 100.0 mg/kg/injection, schedule: Q04DX003 (ip), vehicle: saline.
Setting [10] is: dose: 200.0 mg/kg/injection, schedule: Q01DX009 (ip), vehicle: Klucel (hydroxypropylcellulose) (HPC).
Where [11] appears, read: dose: 200.0 mg/kg/injection, schedule: Q04DX003 (ip), vehicle: saline.
[12] abbreviates: dose: 400.0 mg/kg/injection, schedule: Q01DX009 (ip), vehicle: Klucel (hydroxypropylcellulose) (HPC).
Setting [13] is: dose: 100.0 mg/kg/injection, schedule: Q04DX003 (ip), vehicle: Klucel (hydroxypropylcellulose) (HPC).
Where [14] appears, read: dose: 200.0 mg/kg/injection, schedule: Q04DX003 (ip), vehicle: Klucel (hydroxypropylcellulose) (HPC).
Where [15] appears, read: dose: 400.0 mg/kg/injection, schedule: Q04DX003 (ip), vehicle: Klucel (hydroxypropylcellulose) (HPC).
The mark [16] stands for this setting: dose: 100.0 mg/kg/injection, schedule: Q01DX009 (ip), vehicle: saline with Tween-80.
Setting [17] is: dose: 200.0 mg/kg/injection, schedule: Q01DX009 (ip), vehicle: saline with Tween-80.
Where [18] appears, read: dose: 400.0 mg/kg/injection, schedule: Q01DX009 (ip), vehicle: saline with Tween-80.
The mark [19] stands for this setting: dose: 75.0 mg/kg/injection, schedule: Q01DX001 (ip), vehicle: saline.
Setting [20] is: dose: 150.0 mg/kg/injection, schedule: Q01DX001 (ip), vehicle: saline.
[21] abbreviates: dose: 100.0 mg/kg/injection, schedule: Q01DX001 (ip), vehicle: Klucel (hydroxypropylcellulose) (HPC).
[22] abbreviates: dose: 200.0 mg/kg/injection, schedule: Q01DX001 (ip), vehicle: Klucel (hydroxypropylcellulose) (HPC).
Where [23] appears, read: dose: 400.0 mg/kg/injection, schedule: Q01DX001 (ip), vehicle: Klucel (hydroxypropylcellulose) (HPC).

Values joined by “and” are separate entries in the source; they are usually repeats but may differ in a detail not shown here. Equal values may be shown once. Toxic doses and inconclusive results are not listed.

For the compound `C=CCCCCCCCCC(N)=O`, the T/C (dose: 25.0 mg/kg/injection, schedule: Q01DX009 (ip), vehicle: saline with Tween-80) is 108 % of control; the T/C under setting [1] was 96 % of control; the T/C under setting [2] was 101 % of control; the T/C under setting [3] was 95 % of control; the T/C under setting [4] was 184 % of control.

Take `Cc1nc2cc(N=Cc3ccc(N(CCCl)CCCl)cc3Cl)ccc2n1C`: the T/C is, setting by setting: under setting [5], 104 % of control; under setting [6], 104 % of control; under setting [7], 104 % of control.

For `O=S(=O)(Cc1ccccc1)N1CCCCC1`, the T/C was 99 % of control under setting [5] and 99 % of control under setting [6].

Consider `O=C(c1cc(C(F)(F)F)cc(C(F)(F)F)c1)N1CC1`, for which the T/C was 96 % of control (dose: 6.25 mg/kg/injection, schedule: Q01DX009 (ip), vehicle: water); 91 % of control (dose: 12.5 mg/kg/injection, schedule: Q01DX009 (ip), vehicle: water); 95 % of control (dose: 25.0 mg/kg/injection, schedule: Q01DX009 (ip), vehicle: water); 93 % of control and 86 % of control (dose: 50.0 mg/kg/injection, schedule: Q01DX009 (ip), vehicle: water); 88 % of control (dose: 100.0 mg/kg/injection, schedule: Q01DX009 (ip), vehicle: water); 95 % of control and 89 % of control (dose: 200.0 mg/kg/injection, schedule: Q01DX009 (ip), vehicle: water). The T/C (dose: 400.0 mg/kg/injection, schedule: Q01DX009 (ip), vehicle: water) was 86 % of control.

`CC(=O)Nc1cccc(C(=O)O)c1[N+](=O)[O-]`: the T/C under setting [8] was 103 % of control; the T/C under setting [9] is 103 % of control; the T/C under setting [10] was 97 % of control; the T/C under setting [11] is 106 % of control; the T/C under setting [12] is 93 % of control; the T/C (dose: 400.0 mg/kg/injection, schedule: Q04DX003 (ip), vehicle: saline) was 103 % of control.

With `S=C(Nc1ccccc1)Nc1ccccc1S`, the T/C under setting [8] was 97 % of control; the T/C under setting [13] was 98 % of control; the T/C under setting [10] is 92 % of control; the T/C under setting [14] was 95 % of control; the T/C under setting [12] is 92 % of control; the T/C under setting [15] was 95 % of control.

For `Cc1ccc(C(=O)O)cc1S(=O)(=O)F`, the T/C is 96 % of control under setting [16]; 107 % of control under setting [2]; 96 % of control under setting [17]; 91 % of control under setting [3]; 90 % of control under setting [18]; 91 % of control under setting [4].

Regarding `CCCC[n+]1cnc(N)c2[nH]cnc21`, the T/C reads like this: (dose: 50.0 mg/kg/injection, schedule: Q04DX003 (ip), vehicle: saline) 93 % of control; under setting [9], 91 % of control; under setting [11], 100 % of control.

In the case of `CCN(CC)Cc1ccccc1COC(=O)/C=C/c1ccccc1`, the T/C was 108 % of control (dose: 100.0 mg/kg/injection, schedule: Q04DX002 (ip), vehicle: saline); 86 % of control (dose: 200.0 mg/kg/injection, schedule: Q04DX002 (ip), vehicle: saline); 108 % of control (dose: 400.0 mg/kg/injection, schedule: Q04DX002 (ip), vehicle: saline).

Turning to `CC12CCCCC1=CC(O)CC2` (configuration not stated), the T/C runs as follows: under setting [1], 98 % of control; under setting [16], 91 % of control; under setting [17], 94 % of control.

Take `CCCCCCCCCCNCCC(=O)O`: the T/C by setting is: (dose: 12.5 mg/kg/injection, schedule: Q01DX001 (ip), vehicle: saline) 94 % of control; (dose: 25.0 mg/kg/injection, schedule: Q01DX001 (ip), vehicle: saline) 94 % of control; (dose: 25.0 mg/kg/injection, schedule: Q01DX009 (ip), vehicle: saline) 104 % of control; (dose: 37.5 mg/kg/injection, schedule: Q01DX009 (ip), vehicle: saline) 104 % of control; (dose: 50.0 mg/kg/injection, schedule: Q01DX001 (ip), vehicle: saline) 100 % of control; (dose: 50.0 mg/kg/injection, schedule: Q01DX009 (ip), vehicle: saline) 102 % of control. Besides, the T/C is 101 % of control under setting [19]; 88 % of control (dose: 75.0 mg/kg/injection, schedule: Q01DX009 (ip), vehicle: saline); 101 % of control (dose: 100.0 mg/kg/injection, schedule: Q01DX001 (ip), vehicle: saline); 104 % of control (dose: 100.0 mg/kg/injection, schedule: Q01DX009 (ip), vehicle: saline); 94 % of control under setting [20].

Turning to `C=C1C(=O)OCC2(CC)CCCCC12` (configuration not stated), the T/C runs as follows: (dose: 20.0 mg/kg/injection, schedule: Q01DX009 (ip), vehicle: saline with Tween-80) 103 % of control; (dose: 40.0 mg/kg/injection, schedule: Q01DX009 (ip), vehicle: saline with Tween-80) 106 % of control; (dose: 80.0 mg/kg/injection, schedule: Q01DX009 (ip), vehicle: saline with Tween-80) 91 % of control; (dose: 160.0 mg/kg/injection, schedule: Q01DX009 (ip), vehicle: saline with Tween-80) 98 % of control.

Turning to `O=C(O)C1CC2(CCC1c1ccccc1)SCCS2` (configuration not stated), the T/C is 95 % of control (dose: 50.0 mg/kg/injection, schedule: Q01DX009 (ip), vehicle: Klucel (hydroxypropylcellulose) (HPC)); 97 % of control under setting [21]; 93 % of control under setting [8]; 100 % of control under setting [22]; 96 % of control under setting [10]; 96 % of control under setting [23].

With `CN1c2ccccc2C(C)(C)C12C=Cc1cc([N+](=O)[O-])cc([N+](=O)[O-])c1O2` (configuration not stated), the T/C is 105 % of control under setting [21], 105 % of control under setting [22] and 97 % of control under setting [23].

For `CCN(CC)CCCC(C)Nc1cc(N)nc2nc(-c3ccc(Br)cc3)cnc12` (configuration not stated), the T/C runs as follows: under setting [19], 106 % of control; under setting [20], 101 % of control.

With `O=C(Nc1ccccc1)OC1CCC2CC21` (configuration not stated), the T/C is 91 % of control under setting [1] and 87 % of control under setting [16].

Take `CCOC(=O)C(CC(OCC)OCC)C(=O)OCC`: the T/C under setting [16] is 95 % of control; the T/C under setting [2] was 101 % of control; the T/C under setting [17] is 96 % of control; the T/C under setting [3] was 108 % of control; the T/C under setting [18] is 96 % of control; the T/C under setting [4] is 100 % of control.

`CNC(=S)N(N)c1ccccc1`: the T/C reads like this: under setting [8], 104 % of control; under setting [13], 93 % of control; under setting [10], 101 % of control; under setting [14], 103 % of control; under setting [15], 101 % of control.

As for `Cc1ccc(C(=O)C[n+]2cccc3ccccc32)c(C)c1`, the T/C (dose: 25.0 mg/kg/injection, schedule: Q04DX002 (ip), vehicle: saline with Tween-80) is 93 % of control.

As for `COc1ccccc1C(=O)N/N=C/c1cccc([N+](=O)[O-])c1`, the T/C reads like this: under setting [5], 96 % of control; under setting [6], 89 % of control; under setting [7], 89 % of control.

Regarding `O=c1ccc2c(Cl)cc(CN(CCO)CCO)cc2[nH]1`, the T/C is 102 % of control under setting [19]; 97 % of control (dose: 75.0 mg/kg/injection, schedule: Q04DX003 (ip), vehicle: saline); 102 % of control under setting [20]; 92 % of control (dose: 150.0 mg/kg/injection, schedule: Q04DX003 (ip), vehicle: saline); 108 % of control (dose: 300.0 mg/kg/injection, schedule: Q01DX001 (ip), vehicle: saline).
